Test results reported in ChEMBL document CHEMBL1201862, “PubChem BioAssay data set” (2004).
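1) Cells in 96-well plates. 2) Compound, 48 h, 5 concentrations. 3) Linear interpolation between surrounding doses. 4) Unreached endpoint = highest concentration. GI50: concentration for 50% inhibition of growth.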 Active and inactive are the calls of the source. Rule as the data show it: active = GI50 up to about 1.1 µM and inactive = higher.

How the values were obtained:
Assay in all cases: NCI tumour cell line growth inhibition, 48 h
UACC-257 = test system: UACC-257
NCI-H460 = test system: NCI-H460
RPMI-8226 = test system: RPMI-8226
HL-60 = test system: HL-60
DMS-273 = test system: DMS-273
NCI-H522 = test system: NCI-H522
Malme-3M = test system: Malme-3M
HCC 2998 = test system: HCC 2998
OVCAR-5 = test system: OVCAR-5
HOP-92 = test system: HOP-92
DMS-114 = test system: DMS-114
SF-268 = test system: SF-268
CCRF-CEM = test system: CCRF-CEM
SN12C = test system: SN12C
RXF 393 = test system: RXF 393
TK-10 = test system: TK-10

Measured: GI50

CN1C(c2ccccc2)CC(=NO)CC1c1ccccc1 (stereo not given)
inactive: UACC-257 55.1 µM | NCI-H460 60 µM | RPMI-8226 24 µM | HL-60 16.4 µM | DMS-273 28 µM | NCI-H522 25.6 µM | Malme-3M 34.8 µM | HCC 2998 97.5 µM | OVCAR-5 67.3 µM | HOP-92 92.7 µM | DMS-114 25.7 µM | SF-268 55.7 µM | CCRF-CEM 28.2 µM | SN12C 24.9 µM | RXF 393 62.5 µM | TK-10 > 100 µM

COc1cc2c(cc1OC)C1(c3ccc(Cl)cc3)ON=C(c3ccccc3)N1CS2 (stereo not given)
inactive: UACC-257 > 100 µM | NCI-H460 92 µM | RPMI-8226 48.1 µM | HL-60 24.2 µM | DMS-273 > 100 µM | NCI-H522 58.9 µM | Malme-3M > 100 µM | HCC 2998 > 100 µM | OVCAR-5 > 100 µM | HOP-92 44.8 µM | DMS-114 > 100 µM | SF-268 > 100 µM | CCRF-CEM 41 µM | SN12C 64.7 µM | RXF 393 21.2 µM | TK-10 > 100 µM

O=C(C[n+]1ccccc1)NNC(=O)/C(=C/c1ccc2c(c1)OCO2)NC(=O)c1ccccc1
inactive: UACC-257 > 100 µM | NCI-H460 > 57.7 µM | RPMI-8226 24.5 µM | HL-60 25.2 µM | DMS-273 28.3 µM | NCI-H522 29 µM | Malme-3M > 81.8 µM | HCC 2998 > 100 µM | OVCAR-5 > 100 µM | HOP-92 > 100 µM | DMS-114 25.5 µM | SF-268 49.1 µM | CCRF-CEM 25.9 µM | SN12C > 100 µM | RXF 393 41.7 µM | TK-10 > 100 µM

C[N+](C)(C)CC1CCCC(C[N+](C)(C)C)C1O (stereo not given)
inactive: UACC-257 > 100 µM | NCI-H460 > 100 µM | RPMI-8226 > 100 µM | HL-60 > 100 µM | DMS-273 > 100 µM | NCI-H522 > 100 µM | Malme-3M > 100 µM | HCC 2998 > 100 µM | OVCAR-5 > 100 µM | HOP-92 > 100 µM | DMS-114 > 100 µM | SF-268 > 100 µM | CCRF-CEM > 100 µM | SN12C > 100 µM | RXF 393 > 100 µM | TK-10 > 100 µM

N#CC1(C#N)C=CC(=C2OCC3CCCN23)C=C1 (stereo not given)
inactive: UACC-257 > 100 µM | NCI-H460 > 100 µM | RPMI-8226 > 100 µM | HL-60 87.5 µM | DMS-273 > 100 µM | NCI-H522 > 100 µM | Malme-3M > 100 µM | HCC 2998 > 100 µM | OVCAR-5 > 100 µM | HOP-92 96.2 µM | DMS-114 > 100 µM | SF-268 > 100 µM | CCRF-CEM 77.1 µM | SN12C > 100 µM | RXF 393 > 100 µM | TK-10 > 100 µM
